Patent publication US11180499B2, “Phosphodiesterase inhibitors” (BOARD OF REGENTS OF THE UNIVERSITY OF NEBRASKA, priority 2018, dated 2021)

Tests used:
PDE4B = molecular target: T1, PDE4B (Homo sapiens, UniProt Q07343); experiment: In vitro PDE4 inhibition study, PDE4B (BPS Bioscience); assay type: binding; settings: for inhibition at 10 µM: values in parentheses
T1 construct: purchased BPS Bioscience, San Diego
Experimental: (§1) The IC50 values of Compound 8 on PDE4 isoforms were determined by BPS Bioscience, San Diego. In brief, coat proteins (PDE4 isoforms) were added into the plate in a volume of 50 μl (2-5 ng/μl) at 4° C. overnight. The next day, Compound 8 was added to the coated plate with varying concentrations followed by addition of the corresponding biotinylated binding partner. The reaction was incubated for 2 hours at room temperature. Binding assays were performed in duplicate at each concentration and the plates were read by using Synergy 2 BioTek plate reader. The luminescence data were analyzed using the Graphpad Prism. […] Data for a reference compounds or antibodies are included as a control for inhibition. “ND” indicates the compound was not tested.

PDE4D = molecular target: T2, PDE4D (Homo sapiens, UniProt Q08499); experiment: In vitro PDE4 inhibition study, PDE4D (BPS Bioscience); assay type: binding; settings: values in parentheses
T2 construct: purchased BPS Bioscience, San Diego
T2 sequence (Q08499 whole entry): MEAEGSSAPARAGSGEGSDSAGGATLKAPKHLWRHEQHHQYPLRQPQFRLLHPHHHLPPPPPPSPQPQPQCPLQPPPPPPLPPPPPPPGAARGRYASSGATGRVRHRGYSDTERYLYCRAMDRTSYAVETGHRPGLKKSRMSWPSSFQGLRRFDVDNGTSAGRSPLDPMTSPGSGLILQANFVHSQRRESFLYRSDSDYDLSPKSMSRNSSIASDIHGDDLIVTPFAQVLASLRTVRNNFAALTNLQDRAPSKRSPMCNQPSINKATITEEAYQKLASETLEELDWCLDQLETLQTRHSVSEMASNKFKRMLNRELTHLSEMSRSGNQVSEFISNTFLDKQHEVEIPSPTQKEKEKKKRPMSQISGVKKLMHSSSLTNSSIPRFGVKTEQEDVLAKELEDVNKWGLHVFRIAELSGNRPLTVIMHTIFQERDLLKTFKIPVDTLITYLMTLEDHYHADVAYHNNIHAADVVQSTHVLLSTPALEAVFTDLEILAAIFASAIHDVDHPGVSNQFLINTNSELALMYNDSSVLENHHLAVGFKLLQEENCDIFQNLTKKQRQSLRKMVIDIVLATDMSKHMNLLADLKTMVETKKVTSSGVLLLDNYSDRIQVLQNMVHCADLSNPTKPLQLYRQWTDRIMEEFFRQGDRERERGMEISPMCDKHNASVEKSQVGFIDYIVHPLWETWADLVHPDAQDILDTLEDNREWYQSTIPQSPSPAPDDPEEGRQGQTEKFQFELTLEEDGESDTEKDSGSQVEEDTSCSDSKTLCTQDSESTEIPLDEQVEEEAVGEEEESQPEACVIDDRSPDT
Experimental: as §1

T1 sequence (Q07343 whole entry): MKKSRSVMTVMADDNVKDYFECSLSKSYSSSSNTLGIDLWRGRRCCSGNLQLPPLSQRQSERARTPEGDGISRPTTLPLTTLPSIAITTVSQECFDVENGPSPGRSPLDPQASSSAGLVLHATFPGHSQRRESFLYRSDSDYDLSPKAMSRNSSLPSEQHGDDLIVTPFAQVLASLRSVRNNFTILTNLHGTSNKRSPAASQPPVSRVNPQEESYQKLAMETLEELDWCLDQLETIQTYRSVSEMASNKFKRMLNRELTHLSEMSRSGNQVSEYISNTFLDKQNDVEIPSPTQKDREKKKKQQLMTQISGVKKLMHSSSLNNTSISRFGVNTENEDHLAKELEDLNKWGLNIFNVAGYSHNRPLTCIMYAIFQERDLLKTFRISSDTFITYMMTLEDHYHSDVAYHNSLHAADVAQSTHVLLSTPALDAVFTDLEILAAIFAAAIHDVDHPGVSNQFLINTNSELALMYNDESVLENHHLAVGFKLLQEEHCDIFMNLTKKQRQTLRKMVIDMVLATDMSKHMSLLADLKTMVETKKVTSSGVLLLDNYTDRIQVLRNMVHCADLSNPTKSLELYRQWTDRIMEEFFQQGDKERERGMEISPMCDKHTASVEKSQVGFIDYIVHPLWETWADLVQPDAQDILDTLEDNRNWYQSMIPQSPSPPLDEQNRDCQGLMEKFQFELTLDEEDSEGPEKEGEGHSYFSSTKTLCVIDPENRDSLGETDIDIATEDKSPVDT

Structure (SMILES) | IC50 (PDE4B) [µM] | inhibition at 10 µM (PDE4D) [%] | inhibition at 10 µM (PDE4B) [%]
Cc1ccc(-n2c(C(=O)NC3CCC3)cc3cccnc32)cc1Cl [Compound 17, 1-(3-chloro-4-methylphenyl)-N-cyclobutyl-1H-pyrrolo[2,3-b]pyridine-2-carboxamide] | 2.3 | 43 | 
O=C(c1cc2cccnc2n1Cc1ccc(Cl)c(Cl)c1)N1CC(F)C1 [Compound 43, (1-(3,4-dichlorobenzyl)-1H-pyrrolo[2,3-b]pyridin-2-yl)(3-fluoroazetidin-1-yl)methanone] |  | 58 | 72
O=C(c1cc2cccnc2n1-c1ccc(Cl)c(Cl)c1)N1CCC2(CCC2)CC1 [Compound 12, (1-(3,4-dichlorophenyl)-1H-pyrrolo[2,3-b]pyridin-2-yl)(7-azaspiro[3.5]nonan-7-yl) methanone] |  | 29 | 50
O=C(NC1CCC1)c1cc2cccnc2n1-c1ccc(Cl)c(F)c1 [Compound 34, 1-(4-chloro-3-fluorophenyl)-N-cyclobutyl-1H-pyrrolo[2,3-b]pyridine-2-carboxamide] | 1.3 | 39 | 
N#Cc1c(F)cc(-n2c(C(=O)N3CC(F)C3)cc3cccnc32)cc1F [Compound 30, 2,6-difluoro-4-(2-(3-fluoroazetidine-1-carbonyl)-1H-pyrrolo[2,3-b]pyridin-1-yl)benzonitrile] | 0.43 | 66 | 
O=C(NC1CC1)c1cc2cccnc2n1-c1ccc(Cl)cc1 [Compound 31, 1-(4-chlorophenyl)-N-cyclopropyl-1H-pyrrolo[2,3-b]pyridine-2-carboxamide] | 2.9 | 10.1 | 
O=C(NC1CCC1)c1cc2cccnc2n1-c1ccc(Cl)cc1 [Compound 32, 1-(4-chlorophenyl)-N-cyclobutyl-1H-pyrrolo[2,3-b]pyridine-2-carboxamide] | 5 | 28.2 | 
COc1ncc(-n2c(C(=O)N3CC(F)C3)cc3cccnc32)cc1Cl [Compound 39, (1-(5-chloro-6-methoxypyridin-3-yl)-1H-pyrrolo[2,3-b]pyridin-2-yl)(3-fluoroazetidin-1-yl) methanone] | 0.49 |  | 
O=C(NCc1ccco1)c1cc2cccnc2n1-c1ccc(Cl)c(Cl)c1 [Compound 5, 1-(3,4-dichlorophenyl)-N-(furan-2-ylmethyl)-1H-pyrrolo[2,3-b]pyridine-2-carboxamide] |  | 52 | 70
Cc1ccc(-n2c(C(=O)N3CC(F)C3)cc3cccnc32)cc1Cl [Compound 20, (1-(3-chloro-4-methylphenyl)-1H-pyrrolo[2,3-b]pyridin-2-yl)(3-fluoroazetidin-1-yl) methanone] | 0.91 | 60 | 
O=C(NC1CC(F)(F)C1)c1cc2cccnc2n1-c1ccc(Cl)c(Cl)c1 [Compound 4, 1-(3,4-dichlorophenyl)-N-(3,3-difluorocyclobutyl)-1H-pyrrolo[2,3-b]pyridine-2-carboxamide] |  | 11.6 | 23
O=C(c1cc2cccnc2n1-c1ccnc(F)c1)N1CC(F)C1 [Compound 41, (3-fluoroazetidin-1-yl)(1-(2-fluoropyridin-4-yl)-1H-pyrrolo[2,3-b]pyridin-2-yl)methanone] | 0.98 |  | 
O=C(c1cc2cccnc2n1-c1ccc(Cl)c(Cl)c1)N1CC(F)C1 [Compound 7, (1-(3,4-dichlorophenyl)-1H-pyrrolo[2,3-b]pyridin-2-yl)(3-fluoroazetidin-1-yl)methanone] | 0.23 | 77 | 
O=C(c1cc2cccnc2n1-c1ccc(Cl)c(F)c1)N1CC(F)C1 [Compound 37, (1-(4-chloro-3-fluorophenyl)-1H-pyrrolo[2,3-b]pyridin-2-yl)(3-fluoroazetidin-1-yl) methanone] | 0.61 | 71 | 
N#Cc1c(F)cc(-n2c(C(=O)NC3CC3)cc3cccnc32)cc1F [Compound 26, 1-(4-cyano-3,5-difluorophenyl)-N-cyclopropyl-1H-pyrrolo[2,3-b]pyridine-2-carboxamide] | 1.4 | 18.5 | 
COc1ccc(-n2c(C(=O)N3CC(F)C3)cc3cccnc32)cc1 [Compound 38, (3-fluoroazetidin-1-yl)(1-(4-methoxyphenyl)-1H-pyrrolo[2,3-b]pyridin-2-yl)methanone] |  | 37 | 67
N#Cc1c(F)cc(-n2c(C(=O)NC3CCC3)cc3cccnc32)cc1F [Compound 27, 1-(4-cyano-3,5-difluorophenyl)-N-cyclobutyl-1H-pyrrolo[2,3-b]pyridine-2-carboxamide] | 1.8 | 16.6 | 
COc1c(F)cc(-n2c(C(=O)N3CC(F)C3)cc3cccnc32)cc1F [Compound 42, (1-(3,5-difluoro-4-methoxyphenyl)-1H-pyrrolo[2,3-b]pyridin-2-yl)(3-fluoroazetidin-1-yl) methanone] | 0.41 |  | 
O=C(c1cc2cccnc2n1-c1ccc(Cl)c(Cl)c1)N1CCC1 [Compound 6, Azetidin-1-yl(1-(3,4-dichlorophenyl)-1H-pyrrolo[2,3-b]pyridin-2-yl)methanone] | 0.11 |  | 

Next, values leading:

IC50 (PDE4B) [µM] | inhibition at 10 µM (PDE4D) [%] | inhibition at 10 µM (PDE4B) [%] | Structure (SMILES)
 | 17 | 39 | O=C(c1cc2cccnc2n1-c1ccc(Cl)c(Cl)c1)N1CCS(=O)(=O)CC1 [Compound 11, (1-(3,4-dichlorophenyl)-1H-pyrrolo[2,3-b]pyridin-2-yl)(1,1-dioxidothiomorpholino) methanone]
1.4 | 53 |  | O=C(NC1CC1)c1cc2cccnc2n1-c1cc(F)c(Cl)c(F)c1 [Compound 21, 1-(4-chloro-3,5-difluorophenyl)-N-cyclopropyl-1H-pyrrolo[2,3-b]pyridine-2-carboxamide]
 | 39 | 73 | O=C(c1cc2cccnc2n1-c1ccc(Cl)c(Cl)c1)N1CCCC2(CCO2)C1 (stereo not shown) [Compound 10, (1-(3,4-dichlorophenyl)-1H-pyrrolo[2,3-b]pyridin-2-yl)(1-oxa-6-azaspiro[3.5]nonan-6-yl)methanone]
1.1 | 24 |  | O=C(NC1CCC1)c1cc2cccnc2n1-c1ccc(Cl)c(Cl)c1 [Compound 2, N-cyclobutyl-1-(3,4-dichlorophenyl)-1H-pyrrolo[2,3-b]pyridine-2-carboxamide]
 | 13 | 33 | O=C(c1cc2cccnc2n1-c1ccc(Cl)c(Cl)c1)N1CC2(CCNCC2)C1 [Compound 15, (1-(3,4-dichlorophenyl)-1H-pyrrolo[2,3-b]pyridin-2-yl)(2,7-diazaspiro[3.5]nonan-2-yl) methanone]
0.98 |  |  | O=C(c1cc2cccnc2n1-c1ccc(Cl)c(Cl)c1)N1CCC2(CCC2)C1 [Compound 13, (1-(3,4-dichlorophenyl)-1H-pyrrolo[2,3-b]pyridin-2-yl)(6-azaspiro[3.4]octan-6-yl) methanone]
1.3 | 10.7 |  | O=C(NC1CCC1)c1cc2cccnc2n1-c1cc(F)c(Cl)c(F)c1 [Compound 22, 1-(4-chloro-3,5-difluorophenyl)-N-cyclobutyl-1H-pyrrolo[2,3-b]pyridine-2-carboxamide]
0.6 | 36 |  | O=C(NC1CC(F)C1)c1cc2cccnc2n1-c1ccc(Cl)c(Cl)c1 (stereo not shown) [Compound 3, 1-(3,4-Dichlorophenyl)-N-(3-fluorocyclobutyl)-1H-pyrrolo[2,3-b]pyridine-2-carboxamide]
